Laboratory results: ChEMBL document CHEMBL5579878, “Allosteric Activation of Protein Phosphatase 5 with Small Molecules” (J Med Chem, 2024)
Numbering of substitutions follows the chain as printed. Calls of active or inactive are those of the source. The calls are words filed in the database; no cut-off is given here.

How the values were obtained:
[1] = target: T1, Serine/threonine-protein phosphatase 5 (Homo sapiens, UniProt P53041); experiment: Binding affinity to His-tagged human PP5 phosphatase domain extracted from Escherichia coli BL21 assessed as dissociation constant by ITC analysis
T1 sequence (P53041 whole entry): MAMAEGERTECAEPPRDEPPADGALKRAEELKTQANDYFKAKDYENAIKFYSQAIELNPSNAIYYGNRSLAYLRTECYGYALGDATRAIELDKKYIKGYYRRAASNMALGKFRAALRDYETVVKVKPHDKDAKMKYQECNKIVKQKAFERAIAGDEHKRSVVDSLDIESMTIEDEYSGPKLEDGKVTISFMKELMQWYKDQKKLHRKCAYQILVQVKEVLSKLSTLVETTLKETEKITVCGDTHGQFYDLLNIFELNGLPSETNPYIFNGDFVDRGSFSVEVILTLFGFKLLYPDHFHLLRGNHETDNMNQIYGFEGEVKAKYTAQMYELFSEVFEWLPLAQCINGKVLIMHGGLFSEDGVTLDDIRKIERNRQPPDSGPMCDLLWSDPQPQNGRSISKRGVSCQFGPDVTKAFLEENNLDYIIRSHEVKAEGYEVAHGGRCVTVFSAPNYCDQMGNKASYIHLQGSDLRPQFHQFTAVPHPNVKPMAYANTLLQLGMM

[2] = system: HCT-116; experiment: Effect on AT13387-induced HSF1 expression in human HCT-116 cells at 50 uM incubated for 24 hrs by Western blot analysis; assay type: functional, cell-based
[3] = system: T2, Serine/threonine-protein phosphatase 5 (Homo sapiens), P53041 [V429A]; experiment: Binding affinity to PP5 V429A mutant (unknown origin) by ITC analysis
T2 sequence (whole entry): T1 sequence (P53041 whole entry) with V429A

[4] = target: T3, Tyrosine-protein phosphatase non-receptor type 2 (Homo sapiens) (UniProt P17706); experiment: Inhibition of PTPN2 (unknown origin) using DiFMUP as substrate at 0.01 to 1000 uM; details: dose 0.01-1000 µM
T3 sequence (whole entry): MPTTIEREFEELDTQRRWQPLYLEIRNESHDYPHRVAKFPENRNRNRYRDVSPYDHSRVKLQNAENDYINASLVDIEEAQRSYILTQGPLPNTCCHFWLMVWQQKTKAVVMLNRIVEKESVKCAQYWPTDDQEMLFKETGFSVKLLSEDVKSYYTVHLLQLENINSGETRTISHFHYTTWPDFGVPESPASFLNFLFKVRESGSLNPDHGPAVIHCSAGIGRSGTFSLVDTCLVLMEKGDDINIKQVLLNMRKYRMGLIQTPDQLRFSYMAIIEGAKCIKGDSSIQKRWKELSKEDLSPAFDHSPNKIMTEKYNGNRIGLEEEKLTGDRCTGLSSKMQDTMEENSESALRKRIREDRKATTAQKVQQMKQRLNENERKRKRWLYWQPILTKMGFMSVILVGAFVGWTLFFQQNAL

[5] = target: T4, Low molecular weight phosphotyrosine protein phosphatase (Homo sapiens) (UniProt P24666); experiment: Inhibition of LMPTP-A (unknown origin) using DiFMUP as substrate at 0.01 to 1000 uM; details: dose 0.01-1000 µM
T4 sequence (whole entry): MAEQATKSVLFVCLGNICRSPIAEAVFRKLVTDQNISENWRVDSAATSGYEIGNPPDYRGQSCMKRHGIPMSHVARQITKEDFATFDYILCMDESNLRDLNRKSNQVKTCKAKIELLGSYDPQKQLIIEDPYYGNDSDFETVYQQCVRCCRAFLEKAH

[6] = target: Serine/threonine-protein phosphatase 5 (Homo sapiens, UniProt P53041, K430A); experiment: Binding affinity to PP5 K430A mutant (unknown origin) assessed as dissociation constant by ITC analysis
[7] = target: T5, Serine/threonine-protein phosphatase 5 (Homo sapiens) (UniProt P53041); experiment: Binding affinity to human PP5 extracted from Escherichia coli BL21 using CDC37 as substrate assessed as increase in dephosphorylation of p-CDC37 at S13 residue incubated for 1 hrs by Western blot analysis; details: filed as activator, dose 5-50 µM
T5 sequence (whole entry): T1 sequence (P53041 whole entry)

[8] = target: T6, Hsp90 co-chaperone Cdc37 (Homo sapiens) (UniProt Q16543); experiment: Induction of CDC37 dephosphorylation at S13 residue in PP5-KO human HCT-116 cells upto 100 uM incubated for 24 hrs by Western blot analysis; assay type: cell-based
T6 sequence (whole entry): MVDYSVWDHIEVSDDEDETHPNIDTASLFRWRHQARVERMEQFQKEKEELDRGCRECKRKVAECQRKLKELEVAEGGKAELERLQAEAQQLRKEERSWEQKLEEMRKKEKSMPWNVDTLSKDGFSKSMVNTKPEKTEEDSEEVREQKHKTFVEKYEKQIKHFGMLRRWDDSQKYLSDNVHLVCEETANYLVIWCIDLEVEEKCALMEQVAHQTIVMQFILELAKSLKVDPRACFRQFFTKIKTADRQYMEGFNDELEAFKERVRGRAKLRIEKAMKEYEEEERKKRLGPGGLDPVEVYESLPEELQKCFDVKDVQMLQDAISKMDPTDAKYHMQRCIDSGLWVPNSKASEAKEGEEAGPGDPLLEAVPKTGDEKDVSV

[9] = system: HCT-116; experiment: Effect on HSP70 expression level in human HCT-116 cells at 1 to 100 uM incubated for 24 hrs by Western blot analysis; assay type: functional, cell-based; details: dose 1-100 µM
[10] = system: HCT-116; experiment: Enhancement of HSP90 inhibitor AT13387-induced antiproliferative activity against human HCT-116 cells assessed as HSP90 inhibitor AT13387 IC50 at 50 uM incubated for 72 hrs by CCK8 assay (reference value: 78.49 nM); assay type: functional, cell-based; details: HCT-116, 72 h
[11] = system: HCT-116; experiment: Enhancement of HSP90 inhibitor AT13387-induced antiproliferative activity against human HCT-116 cells assessed as fold change in HSP90 inhibitor AT13387 IC50 at 50 uM incubated for 72 hrs by CCK8 assay; assay type: functional
[12] = system: HCT-116; experiment: Downregulation of AT13387-induced HSP70 mRNA expression in human HCT-116 cells at 50 uM incubated for 24 hrs by qRT-PCR analysis; assay type: functional, cell-based

Sequence of Serine/threonine-protein phosphatase 5 (Homo sapiens, UniProt P53041, K430A) (P53041 2-499 K430A limits assumed): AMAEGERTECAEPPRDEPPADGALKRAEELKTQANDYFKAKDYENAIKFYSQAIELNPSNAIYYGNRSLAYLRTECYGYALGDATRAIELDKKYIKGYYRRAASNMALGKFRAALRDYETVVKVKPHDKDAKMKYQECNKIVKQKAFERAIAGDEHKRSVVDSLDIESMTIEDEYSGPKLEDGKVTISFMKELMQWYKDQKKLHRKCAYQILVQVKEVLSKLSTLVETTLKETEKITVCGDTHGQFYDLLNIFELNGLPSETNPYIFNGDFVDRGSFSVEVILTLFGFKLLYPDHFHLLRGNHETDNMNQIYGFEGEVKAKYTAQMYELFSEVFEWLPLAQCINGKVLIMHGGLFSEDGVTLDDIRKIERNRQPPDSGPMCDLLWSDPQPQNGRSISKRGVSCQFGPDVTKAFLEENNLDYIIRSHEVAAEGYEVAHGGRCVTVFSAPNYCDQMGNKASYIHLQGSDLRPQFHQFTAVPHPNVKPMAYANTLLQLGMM

Kd [1]: 811 nM | Activity [3]: inactive | inhibition [4]: inactive | inhibition [5]: inactive | Kd [6]: 37200 nM | Activity [7]: Dose-Dependent Effect | Activity [8]: inactive | IC50 [10]: 40.8 nM
Structure (SMILES): N=c1oc2cc(F)cc(F)c2cc1C(N)=S
Activity [2]: inactive | Activity [9]: inactive | fold change (FC) [11]: 2 | Activity [12]: Active
